In patent publication US9169252B2 (BRISTOL-MYERS SQUIBB COMPANY, priority 2014, dated 2015):
Where two headings read alike, the source gives them in different places.

System: TLR2 induced IL-6 in peripheral blood mononuclear cells (PBMCs)
Experiment: PBMC TLR2 Induced IL-6 Assay
Assay type: cell-based, human
Conditions: IL-6 by ELISA; for EC50: read-out: Cell EC50; for IC50: read-out: Cell IC50
Description: PBMC TLR2 Induced IL-6 Assay
Peripheral blood mononuclear cells (PBMCs) were isolated from human blood containing the anti-coagulant EDTA (2.5 mM) by centrifugation over a FICOLL® gradient. PBMCs (250000 cells/well) were cultured in assay media (RPMI with 10% heat inactivated FCS) with compounds for 30 minutes at 37° C. in a 5% CO2 incubator. Following pretreatment with compounds, cells were stimulated for 5 hours with 10 µg/ml lipoteichoic acid (Invivogen, San Diego, Calif.), a TLR2 agonist. At the end of the culture, plates were centrifuged at 1800 rpm for 10 minutes to pellet the cells.

[1] = human PBMCs, lipoteichoic acid stimulated
[2] = Homo sapiens, PBMC, PBMC TLR2 Induced IL-6 Assay, lipoteichoic acid stimulation
[3] = PBMC TLR2 Induced IL-6 Assay, lipoteichoic acid stimulation
[4] = Homo sapiens, PBMC, human PBMCs, lipoteichoic acid stimulated

SMILES: CC(C)(O)[C@H](F)CNC(=O)c1cnc(-n2ncc3cc(F)cnc32)cc1NC1CCC(O)C1 (mixture of isomers) [Example 611]
- EC50 [1]: 536 nM
- IC50 [1]: 1850 nM

SMILES: CC(C)(O)[C@H](F)CNC(=O)c1cnc(-n2ccc3cc(C#N)cnc32)cc1NC1CCCOC1 (single isomer, unassigned) [Example 7]
- EC50 [2]: 477 nM
- IC50 [2]: 477 nM

SMILES: CC(C)(O)[C@H](F)CNC(=O)c1cnc(-n2ccc3cc(C#N)cnc32)cc1NC1CCCOC1 (single isomer, unassigned) [Example 8]
- EC50 [3]: 695 nM
- IC50 [3]: 695 nM

SMILES: CC(C)(O)[C@H](F)CNC(=O)c1cnc(-n2ccc3cc(C#N)cnc32)cc1NC1CCC(O)C1 (single isomer, unassigned) [Example 24]
- EC50 [3]: 30 nM

SMILES: CC(C)(O)[C@H](F)CNC(=O)c1cnc(-n2ccc3cc(C#N)cnc32)cc1NC1CCC(O)C1 (single isomer, unassigned) [Example 25]
- EC50 [3]: 22 nM

SMILES: CC(C)(O)[C@H](F)CNC(=O)c1cnc(-n2ccc3cc(C#N)cnc32)cc1NC1CCC(O)C1 (single isomer, unassigned) [Example 26]
- EC50 [3]: 168 nM

SMILES: CC(C)(O)[C@H](F)CNC(=O)c1cnc(-n2ccc3cc(C#N)cnc32)cc1NC1CCC(O)C1 (single isomer, unassigned) [Example 27]
- EC50 [3]: 44 nM

SMILES: CC(C)Nc1cc(-n2ccc3cc(C#N)cnc32)ncc1C(=O)NC[C@@H](F)C(C)O (single isomer, unassigned) [Example 48]
- EC50 [3]: 24 nM

SMILES: CC(C)Nc1cc(-n2ccc3cc(C#N)cnc32)ncc1C(=O)NC[C@@H](F)C(C)O (single isomer, unassigned) [Example 49]
- EC50 [3]: 71 nM

SMILES: CC(C)(O)[C@H](F)CNC(=O)c1cnc(-n2ccc3cc(C#N)cnc32)cc1N[C@@H]1COC[C@H]1F (single isomer, unassigned) [Example 458]
- IC50 [4]: 260 nM
- EC50 [1]: 261 nM

SMILES: CC(C)(O)[C@H](F)CNC(=O)c1cnc(-n2ccc3cc(C#N)cnc32)cc1N[C@@H]1COC[C@H]1F (single isomer, unassigned) [Example 459]
- EC50 [1]: 95 nM
- IC50 [1]: 343 nM

SMILES: CC(O)CCNc1cc(-n2ncc3cc(C#N)cnc32)ncc1C(=O)NC[C@@H](F)C(C)(C)O (single isomer, unassigned) [Example 572]
- IC50 [4]: 303 nM

SMILES: CC(O)CCNc1cc(-n2ncc3cc(C#N)cnc32)ncc1C(=O)NC[C@@H](F)C(C)(C)O (single isomer, unassigned) [Example 573]
- EC50 [4]: 729 nM
- IC50 [1]: 270 nM

SMILES: CC(C)(O)[C@H](F)CNC(=O)c1cnc(-n2ncc3cc(F)cnc32)cc1NC1CCC(O)C1 (single isomer, unassigned) [Example 609]
- EC50 [1]: 485 nM
- IC50 [1]: 1440 nM

SMILES: CC(C)(O)[C@H](F)CNC(=O)c1cnc(-n2ncc3cc(F)cnc32)cc1NC1CCC(O)C1 (single isomer, unassigned) [Example 610]
- EC50 [1]: 166 nM
- IC50 [1]: 217 nM

SMILES: CC(C)(O)[C@H](F)CNC(=O)c1cnc(-n2ncc3cc(Cl)cnc32)cc1N[C@@H]1C[C@H]1CO (single isomer, unassigned) [Example 645]
- IC50 [1]: 154 nM

SMILES: CC(C)(O)[C@H](F)CNC(=O)c1cnc(-n2ncc3cc(Cl)cnc32)cc1N[C@@H]1C[C@H]1CO (single isomer, unassigned) [Example 646]
- IC50 [1]: 393 nM

SMILES: COc1cccc(Nc2cc(-n3ccc4cc(C#N)cnc43)ncc2C(=O)NC[C@@H](F)C(C)(C)O)c1 [Example 51, (R)-6-(5-cyano-1H-pyrrolo[2,3-b]pyridin-1-yl)-N-(2-fluoro-3-hydroxy-3-methylbutyl)-4-((3-methoxyphenyl)amino)nicotinamide]
- EC50 [2]: 65 nM

SMILES: CC(C)Nc1cc(-n2ccc3cc(Cl)cnc32)ncc1C(=O)NC[C@@H](F)C(C)(C)O [Example 76, (R)-6-(5-chloro-1H-pyrrolo[2,3-b]pyridin-1-yl)-N-(2-fluoro-3-hydroxy-3-methylbutyl)-4-(isopropylamino) nicotinamide]
- IC50 [2]: 395 nM

SMILES: CNC(=O)[C@H]1CC[C@H](NC(=O)c2cnc(-n3ccc4cc(C#N)cnc43)cc2NC2CCOCC2)CC1 [Example 86, 6-(5-cyano-1H-pyrrolo[2,3-b]pyridin-1-yl)-N-((trans)-4-(methylcarbamoyl)cyclohexyl)-4-((tetrahydro-2H-pyran-4-yl)amino)nicotinamide]
- EC50 [2]: 110 nM

SMILES: CC(C)Nc1cc(-n2ccc3cc(C#N)cnc32)ncc1C(=O)N[C@H]1CC[C@H]([N+](=O)[O-])CC1 [Example 95, 6-(5-cyano-1H-pyrrolo[2,3-b]pyridin-1-yl)-4-(isopropylamino)-N-((trans)-4-nitrocyclohexyl)nicotinamide]
- EC50 [2]: 408 nM

SMILES: CC(C)(O)[C@H](F)CNC(=O)c1cnc(-n2ccc3cc(C#N)cnc32)cc1NC1CCCC(F)(F)C1O (stereo partly drawn) [Example 111, 6-(5-cyano-1H-pyrrolo[2,3-b]pyridin-1-yl)-4-((3,3-difluoro-2-hydroxycyclohexyl)amino)-N—((R)-2-fluoro-3-hydroxy-3-methylbutyl) nicotinamide]
- EC50 [2]: 238 nM

SMILES: CC(C)(O)[C@H](F)CNC(=O)c1cnc(-n2ncc3cncnc32)cc1NC1CC1 [Example 134, (R)-4-(cyclopropylamino)-N-(2-fluoro-3-hydroxy-3-methylbutyl)-6-(1H-pyrazolo[3,4-d]pyrimidin-1-yl)nicotinamide]
- EC50 [2]: 282 nM

SMILES: CC(C)(O)[C@H](F)CNC(=O)c1cnc(-n2ncc3cc(Cl)cnc32)cc1NC1CCOCC1 [Example 135, (R)-6-(5-chloro-1H-pyrazolo[3,4-b]pyridin-1-yl)-N-(2-fluoro-3-hydroxy-3-methylbutyl)-4-((tetrahydro-2H-pyran-4-yl)amino) nicotinamide]
- EC50 [2]: 168 nM

SMILES: CC(C)(O)[C@H](F)CNC(=O)c1cnc(-n2ncc3cc(Cl)cnc32)cc1NC1CC1 [Example 136, (R)-6-(5-chloro-1H-pyrazolo[3,4-b]pyridin-1-yl)-4-(cyclopropylamino)-N-(2-fluoro-3-hydroxy-3-methylbutyl)nicotinamide]
- EC50 [2]: 133 nM

SMILES: CC(C)Nc1cc(-n2ncc3cc(Cl)cnc32)ncc1C(=O)NC[C@@H](F)C(C)(C)O [Example 137, (R)-6-(5-chloro-1H-pyrazolo[3,4-b]pyridin-1-yl)-N-(2-fluoro-3-hydroxy-3-methylbutyl)-4-(isopropylamino)nicotinamide]
- EC50 [2]: 84 nM

SMILES: CC(C)Nc1cc(-n2ncc3cc(O)cnc32)ncc1C(=O)NC[C@@H](F)C(C)(C)O [Example 153, (R)—N-(2-fluoro-3-hydroxy-3-methylbutyl)-6-(5-hydroxy-1H-pyrazolo[3,4-b]pyridin-1-yl)-4-(isopropylamino)nicotinamide]
- EC50 [2]: 160 nM

SMILES: CC(C)Nc1cc(-n2cnc3cncnc32)ncc1C(=O)NC[C@@H](F)C(C)(C)O [Example 170, (R)—N-(2-Fluoro-3-hydroxy-3-methylbutyl)-4-(isopropylamino)-6-(9H-purin-9-yl) nicotinamide]
- EC50 [2]: 423 nM

SMILES: CC(C)Nc1cc(-n2ccc3cc(C#N)cnc32)ncc1C(=O)N[C@H]1CC[C@](O)(c2ccnn2C)CC1 [Example 173, 6-(5-Cyano-1H-pyrrolo[2,3-b]pyridin-1-yl)-N-((1s,4s)-4-hydroxy-4-(1-methyl-1H-pyrazol-5-yl)cyclohexyl)-4-(isopropylamino)nicotinamide]
- EC50 [2]: 81 nM
- IC50 [2]: 242 nM

SMILES: CC(C)Nc1cc(-n2ncc3cc(C#N)cnc32)ncc1C(=O)NCC1CCS(=O)(=O)C1 (centres unmarked) [Example 209]
- EC50 [2]: 322 nM

SMILES: CC(C)Nc1cc(-n2ncc3cc(C#N)cnc32)ncc1C(=O)N[C@H]1CC[C@H](NC(=O)[C@H](C)O)CC1 [Example 274]
- IC50 [2]: 204 nM

SMILES: CC(C)Nc1cc(-n2ncc3cc(Cl)c(N)nc32)ncc1C(=O)NC[C@@H](F)C(C)(C)O [Example 282]
- IC50 [2]: 541 nM

SMILES: CC(C)Nc1cc(-n2ncc3cc(C#N)cnc32)ncc1C(=O)N[C@H]1CC[C@H](NC(=O)[C@@H](C)O)CC1 [Example 287]
- IC50 [2]: 489 nM

SMILES: CC(Nc1cc(-n2ncc3cc(C#N)cnc32)ncc1C(=O)NC[C@@H](F)C(C)(C)O)C(F)(F)F (some centres unmarked) [Example 297]
- IC50 [2]: 219 nM

SMILES: CCCNc1cc(-n2ncc3cc(C#N)cnc32)ncc1C(=O)NC[C@@H](F)C(C)(C)O [Example 337]
- EC50 [2]: 572 nM
- IC50 [2]: 765 nM

SMILES: Cn1cc(Nc2cc(-n3ncc4cc(C#N)cnc43)ncc2C(=O)NC[C@@H](F)C(C)(C)O)cn1 [Example 387]
- IC50 [2]: 198 nM

SMILES: CC(C)Nc1cc(-n2ccc3cc(C#N)ccc32)ncc1C(=O)N[C@H]1CC[C@H](C(C)(C)O)CC1 [Example 414, 6-(5-Cyano-1H-indol-1-yl)-N-((1R,4R)-4-(2-hydroxypropan-2-yl)cyclohexyl)-4-(isopropylamino)nicotinamide]
- EC50 [4]: 188 nM

SMILES: COC(C)(C)[C@H](F)CNC(=O)c1cnc(-n2ccc3cc(C#N)cnc32)cc1NC(C)C [Example 434]
- EC50 [4]: 57 nM

SMILES: [2H]C([2H])([2H])OC(C)(C)[C@H](F)CNC(=O)c1cnc(-n2ccc3cc(C#N)cnc32)cc1NC(C)C [Example 442]
- EC50 [4]: 42 nM

SMILES: CC(C)Nc1cc(-n2ccc3cc(C#N)cnc32)ncc1C(=O)NC1CCC(C(C)(O)C2CC2)CC1 (centres unmarked) [Example 444]
- EC50 [1]: 186 nM

SMILES: CC(C)Nc1cc(-n2ccc3cc(C#N)cnc32)ncc1C(=O)NC1CCC(C(C)(O)C2CC2)CC1 (centres unmarked) [Example 446]
- EC50 [1]: 51 nM

SMILES: CC(C)(O)[C@H](F)CNC(=O)c1cnc(-n2ccc3cc(C(N)=O)cnc32)cc1NCC1CNC1 [Example 475]
- EC50 [4]: 305 nM
- IC50 [4]: 1180 nM
